The values that follow come from patent publication US20150025025A1, “Immuno-modulators for treating functional epithelial syndromes” (priority 2013, published 2015).

Experiment [1] concerns patients having esophageal erosions. Description: Randomized seven day trial in patients with esophageal erosions (Example 19). Type of experiment: in vivo, human. Conditions: for Complete Relief, number of patients / Complete Relief, percent of patients: loss of all symptoms by day 8; for Complete Healing, number of patients / Complete Healing, percent of patients: no erosions by endoscopy at day 8. An excerpt:
The trial period was seven days. There were two primary end points, i.e., healing and no healing, and three secondary end points, i.e., no relief, partial relief, and complete relief of pain. Healing was defined as no evidence of erosions by endoscopy at day 8 that were present on day 0. No healing was defined as evidence of erosions remaining on day 8.

In experiment [2] the test system is patient with functional dyspepsia. As to the kind of experiment: Case: patient with functional dyspepsia (Example 14). The format is in vivo, human. Conditions: post-prandial early satiety, bloating, indigestion. The text has this: A person diagnosed with functional dyspepsia according to the Rome II criteria suffered from post-prandial early satiety, bloating, and stomach indigestion. […] Initially, there was only a lessening of post-prandial indigestion.

A further experiment deals with right dorsal colitis. Description: Case: equine right dorsal colitis (Example 23). Conditions: 8-12 grams four times daily, NSAID stopped. Type of experiment: in vivo, horse. The method, then:
An 8 year old quarter horse diagnosed with right dorsal colitis by an equine veterinarian had been on high doses of bananime, a non-steroidal anti-inflammatory (NSAID) pain reliever. Right dorsal colitis is known to be caused by ulcerations within the colon of the horse. Treatment was initiated by cessation of the NSAID and administration of 8-12 grams sucralfate four times daily. […] Oral administration to the horse of 30 ml of an immuno-modulating polygalacturonic-rhamnose suspension every 8 hours led to an improvement in attitude and appetite within 24 hours, a complete cessation of diarrhea in 36 hours, and the resumption of a regular diet in 72 hours.

In experiment [3] the test system is gastroduodenal ulceration. Description: Case: equine ulcer colic in a foal (Example 24). The format is in vivo. The note with it: prior treatment. The text has this:
A 3 week old equine foal was diagnosed by a large animal veterinarian with gastroduodenal ulceration following 3 days of poor appetite. […] The foal resumed normal diet and activity by day 4 of treatment.

`COc1ccc2[nH]c([S+]([O-])Cc3ncc(C)c(OC)c3C)nc2c1` (centres unmarked) [Omeprazole, omeprazole]: in experiment [1], the “Complete Relief, number of patients” value came out at 4; the “Complete Relief, percent of patients” value came to 40%; the “Complete Healing, number of patients” value is on record as 3; the “Complete Healing, percent of patients” value is on record as 30%.

As for `COc1ccc2nc([S@@+]([O-])Cc3ncc(C)c(OC)c3C)[nH]c2c1` [esomeprazole], in experiment [2], the “Effect on symptoms of functional dyspepsia” value is “failed to improve their symptoms”.

Take `COCCCOc1ccnc(C[S+]([O-])c2nc3ccccc3[nH]2)c1C` (centres unmarked) [raberazole]: the “Effect on symptoms of functional dyspepsia” value in experiment [2] is recorded as “failed to improve their symptoms”.

Turning to sucralfate, the “Effect on symptoms of functional dyspepsia” value in experiment [2] was “failed to improve their symptoms”. In addition, the “Course of right dorsal colitis under treatment” value with right dorsal colitis is “worsened after 2 days”. Also, in experiment [3], the Effect on symptoms entry was “failed to alleviate the symptoms”.

Take `CNC(=C[N+](=O)[O-])NCCSCc1ccc(CN(C)C)o1` [H2B Ranitidine, ranitidine]: in experiment [1], the “Complete Relief, number of patients” value is listed as 3; the “Complete Relief, percent of patients” value was 30%; the “Complete Healing, number of patients” value is given as 0 (0%); the “Complete Healing, percent of patients” value is on record as 0 (0%). The “Complete Healing, percent of patients” value in experiment [1] (listed as ranitidine) stood at 0%.
